Results on two molecules are retold here after patent US8206943B1, “Assay for PCSK9 inhibitors” (Schering Corporation, priority 2008, dated 2012).

Experiment [1] addresses T1, PCSK9 (Homo sapiens, UniProt Q8NBP7). Description: HPLC / chromatographic analysis of PCSK9 autoproteolysis (cis-cleavage) in the presence of inhibitors. The arrangement: Pro-Cat-Domain Polypeptide; initiator Met (N); made in house; host or cells: E. coli BL-21(DE3). Type of experiment: biochemical. The protocol:
Unprocessed PCSK9 (18 μM for NanoStream experiment, 8 μM for BioRad Experion experiment) was incubated at 25° C. in 25 mM Hepes pH 7.5, 150 mM NaCl, 10% glycerol and 1 mM EDTA (4% DMSO may be added to uninhibited control assays when run in conjunction with assays that include inhibitors dissolved in DMSO). At the designated time points (t=0 minutes, 60 minutes and 240 minutes), aliquots from the 18 μM incubation were quenched by adding guanidine hydrochloride to a concentration of 6M, then the quenched reaction was applied (1 μl) to NanoStream Brio #4207007 (300 Å, C4) chromatography cassette. Following gradient elution, from the cassette, using 0.1% TFA in water (solvent A) and 0.085% TFA in acetonitrile (solvent B), the peaks were quantitated by absorbance at 214 nm.
Furthermore, a chromatographic analysis of PCSK9 autoproteolysis was performed in the presence of various inhibitors. This assay was used to determine the effect of the inhibitors Tris (2-carboxyethyl) phosphine (TCEP; a reducing agent) and tosyl-L-lysine chloromethyl ketone (TLCK) on the PCSK9 autoproteolysis reaction. In these assay, the ProCat peak is uncleaved PCSK9 whereas the Pro- and Cat-peaks indicate generation of the Pro- and Cat-domains, which indicates autoproteolytic cleavage by PCSK9. FIG. 5(a) sets forth the data in the assay wherein the Tris (2-carboxyethyl) phosphine inhibitor was assayed. […] In the control-A experiment, Tris (2-carboxyethyl) phosphine was added at t=zero minutes of a 6 hour incubation. Tris (2-carboxyethyl) phosphine is a disulfide reducing agent that is not oxidized by air.
In the control-B experiment set forth in FIG. 5(a), Tris (2-carboxyethyl) phosphine was added at the end of a 6 hour incubation. The appearance of the Pro- and Cat-domains in the control B assay indicate the occurrence of autoproteolysis.
FIG. 5(b) sets forth data wherein inhibition mediated by TCEP (Tris (2-carboxyethyl) phosphine) and TLCK (tosyl-L-lysine chloromethyl ketone) are compared, side-by-side, in an autoproteolysis assay. […] The inhibitors are added at time zero. TCEP was added at 5 mM to quench the reaction; this sample serves as the 100% inhibited control—Control A in FIG. 5. TLCK was added at a concentration of 77 μM.
An HPLC analysis was performed on unprocessed PCSK9. A sample containing 12 uM unprocessed PCSK9 in 25 mM Hepes buffer pH 7.5, 150 mM NaCl, 1 mM EDTA, 10% glycerol and 4.0% DMSO was incubated at 25° C. […] One microliter of the reaction mixture was analyzed directly by reversed phase-HPLC using Express-LC100, a micro fluidic chromatographic system from Eksigent. […] The flow rate was 12 uI per minute and the sample components were detected at 214 nm. The amount of ProCat polypeptide was calculated as % of sum of peak areas corresponding to Pro-, Cat- and ProCat domains. […]
Target sequence in this assay (Q8NBP7 with tags, fused parts or gaps): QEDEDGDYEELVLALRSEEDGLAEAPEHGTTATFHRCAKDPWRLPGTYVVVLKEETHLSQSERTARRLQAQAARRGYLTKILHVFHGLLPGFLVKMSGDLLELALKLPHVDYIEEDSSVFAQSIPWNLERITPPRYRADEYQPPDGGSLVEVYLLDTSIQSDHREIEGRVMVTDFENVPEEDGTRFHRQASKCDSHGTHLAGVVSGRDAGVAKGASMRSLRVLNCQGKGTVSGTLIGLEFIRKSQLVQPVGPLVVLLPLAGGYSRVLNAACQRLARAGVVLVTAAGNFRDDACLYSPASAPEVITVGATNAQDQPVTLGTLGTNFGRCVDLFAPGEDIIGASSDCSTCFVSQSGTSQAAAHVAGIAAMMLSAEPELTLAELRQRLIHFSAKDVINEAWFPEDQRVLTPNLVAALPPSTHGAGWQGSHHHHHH

Experiment [2] addresses T1, PCSK9. Kind of experiment: Cis-cleavage assay for PCSK9 using immuno-detection (ELISA of remaining FLAG-tag on HisSorb plate). The settings on record: 100 uM, 30° C. for 4 hours. The arrangement: A DNA fragment corresponding to residues 31-454 of human PCSK9 (Pro-Cat domains) was made synthetically; made in house; host or cells: E. coli (pDest14 vector; expressed as for the first construct, BL-21(DE3)). The format is biochemical. The protocol: This example describes an assay to monitor the cis-cleavage of human PCSK9 using immuno-detection methods. A construct of human PCSK9 was created to have an N-terminal FLAG-tag and a (His)6-tag on the C-terminus. After incubation, the reaction was quenched and the domains were disassociated with 4.0 M urea. The protein was transferred to and bound, via the His-tag, to a HisSorb plate (Qiagen; Valencia, Calif.; nickel-nitrilotriacetic acid (Ni-NTA) coated plate). The amount of cleavage was determined by measuring the remaining FLAG-tag using standard ELISA techniques. Using this method, the sensitivity of the assay was increased at least 1000-fold over gel-based techniques and the micro-titer format makes the assay compatible with high throughput screening methods.
Cloning and expression. A DNA fragment corresponding to residues 31-454 of human PCSK9 (Pro-Cat domains) was made synthetically (GeneScript Corp., Piscataway, N.J.). Additional bases were included to add a Not1 restriction site and a Shine-Dalgarno initiation sequence to the 5′-end. A GS-(His)6 tag followed by a Asc1 restriction site was added to the 3′-end. A Gateway vector of PCSK9 was produced as FLAG-Pro-Cat(454)-GS-(His)6 by restriction digestion/ligation into the pDest14 expression vector. Expression and purification of the protein was done as previously described with aliquots frozen at −80° C. […]
Target sequence in this assay (Q8NBP7 31-454): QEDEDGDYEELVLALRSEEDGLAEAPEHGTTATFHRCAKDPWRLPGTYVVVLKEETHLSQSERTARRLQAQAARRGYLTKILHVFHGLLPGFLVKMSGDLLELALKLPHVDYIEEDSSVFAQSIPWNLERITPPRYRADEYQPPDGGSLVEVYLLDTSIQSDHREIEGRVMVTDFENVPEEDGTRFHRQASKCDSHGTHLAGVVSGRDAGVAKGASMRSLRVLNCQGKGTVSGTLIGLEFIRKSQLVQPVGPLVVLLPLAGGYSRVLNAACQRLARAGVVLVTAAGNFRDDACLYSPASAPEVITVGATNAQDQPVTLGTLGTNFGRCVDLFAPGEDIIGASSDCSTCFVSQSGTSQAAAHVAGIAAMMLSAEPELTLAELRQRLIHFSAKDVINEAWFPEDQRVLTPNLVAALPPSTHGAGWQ
(An ELISA detects its analyte on a solid surface through an enzyme-linked reagent.)

Where [3] appears, read: 77 μM, added at time zero, FIG. 5(b).

For `O=C(O)CCP(CCC(=O)O)CCC(=O)O` [TCEP, Tris (2-carboxyethyl) phosphine], on PCSK9 [1] (5 mM, added at t=zero minutes of a 6 hour incubation (control-A), FIG. 5(a)), the “inhibition of cis-cleavage activity” value is “complete inhibition”.
On to “tosyl-L-lysine chloromethyl ketone [TLCK]”, for which the “inhibition of cis-cleavage reaction” value at PCSK9 [1] (77 uM, 6 hour incubation at 25° C., 12 uM unprocessed PCSK9) was “significant inhibition”. Further, at PCSK9 [1] (setting [3]), the “Pro- and Cat-domains in comparison to Control-A (TCEP)” value is given as “slight increase”; the “ProCat peak (uncleaved PCSK9) in comparison to Control-A (TCEP)” value is reported as “small decrease”. Besides, the “inhibition of cis-cleavage (negative control)” value on PCSK9 [2] is 100%.
